The target in this test is T1, GII.17 Kawasaki 308 variant VLP (E12905) (Norovirus GII.17, UniProt A0A0S2ZZA3).
T1 construct: gene VP1
The following applies: ligand as BSA conjugate (about 20 per BSA, multivalent), immobilized; VLP 2 ng/ul; HBS pH 7.4, 25 C; also ELISA (Figure 4A). (In general: In an ELISA, binding on a coated surface is turned into a signal by an enzyme label.)

Consider `CC(=O)N[C@H]1[C@H](O[C@H]2[C@@H](O)[C@@H](CO)O[C@@H](O[C@H]3[C@H](O)[C@@H](O)C(O)O[C@@H]3CO)[C@@H]2O)O[C@H](CO)[C@@H](O)[C@@H]1O[C@@H]1O[C@H](CO)[C@H](O)[C@H](O)[C@H]1O[C@@H]1O[C@@H](C)[C@@H](O)[C@@H](O)[C@@H]1O` (stereo partly shown) [lacto-N-fucopentaose I], for which the “GII.17 variant / Kawasaki 308” value was 255 RU.

Source of the values: PMC9094630, “Epidemiological Impact of GII.17 Human Noroviruses Associated With Attachment to Enterocytes” (Frontiers in Microbiology, 2022).
